Molecules are shown by their SMILES.

human PAD4 (hPAD4), sequence (Q9UM07 whole entry): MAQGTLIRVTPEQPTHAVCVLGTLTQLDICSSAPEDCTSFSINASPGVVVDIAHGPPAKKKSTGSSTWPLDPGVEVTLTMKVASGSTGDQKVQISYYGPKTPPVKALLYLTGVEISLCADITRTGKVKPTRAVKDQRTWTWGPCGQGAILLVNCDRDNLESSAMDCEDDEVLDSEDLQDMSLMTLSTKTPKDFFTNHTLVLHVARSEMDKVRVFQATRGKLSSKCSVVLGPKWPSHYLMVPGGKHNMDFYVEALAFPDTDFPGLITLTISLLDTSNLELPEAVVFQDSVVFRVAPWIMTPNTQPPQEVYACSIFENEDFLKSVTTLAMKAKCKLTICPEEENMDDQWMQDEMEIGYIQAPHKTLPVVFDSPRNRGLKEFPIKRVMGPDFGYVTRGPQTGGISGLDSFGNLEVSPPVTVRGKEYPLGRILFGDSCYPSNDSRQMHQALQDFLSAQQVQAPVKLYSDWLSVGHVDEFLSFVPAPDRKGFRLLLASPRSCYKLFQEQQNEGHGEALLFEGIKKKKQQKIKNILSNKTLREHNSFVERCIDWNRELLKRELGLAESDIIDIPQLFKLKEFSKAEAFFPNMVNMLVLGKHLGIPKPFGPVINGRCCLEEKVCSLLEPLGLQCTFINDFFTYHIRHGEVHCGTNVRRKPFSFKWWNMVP

This assay concerns the target human PAD4 (hPAD4) (Homo sapiens (Human), UniProt Q9UM07). As to the kind of experiment: RFMS Human PAD4 Functional Assay. Type of assay: biochemical. The following applies: rapid-fire mass spectrum (RFMS) assay; 5 nM hPAD4 enzyme, 250 μM BAEE, 30 min preincubation at 37° C. On the procedure:
Compounds of the present invention were assayed as inhibitors of PAD4 using the assay protocol described below.
RFMS Human PAD4 Functional Assay:
Compounds were solubilized in 100% DMSO to achieve a10 mM compound concentration. Compound stock solutions were stored at RT. A series of dilutions were prepared in DMSO and mixed 8 times with 20 μL mixing volume. Final top concentration of compound in the assay is 50 μM. Final assay conditions were as follows: • Reaction volume: 26 μl • Assay buffer: 25 mM hepes, pH 7.5, 5 mM NaCl, 1 mM DTT, 0.2 mg/ml BSA, 0.01% CHAPS, 50 μM Calcium, and 5 μM TPEN • Final concentrations: 5 nM hPAD4 enzyme, 250 μM BAEE, and 0.5% DMSO • Total incubation time: 30 mins compound and enzyme preincubation at 37° C., 90 min enzyme/substrate reaction, 30 min reaction with phenyl glyoxal at 37° C. • Stop solution: 40 μl 5% TCA in ACN
0.13 μL of compound solution was added to 13 μL of 10 nM PAD4 in assay buffer. After 30 min 13 μl of 500 μM of BAEE was added in 25 mM hepes, pH 7.5, 5 mM NaCl, 1 mM DTT, 0.2 mg/ml BSA, 0.01% CHAPS, 50 μM Calcium, 5 μM TPEN was added and the reaction incubated for 90 min at 37° C. The enzymatic reaction was quenched by addition of 15 μl of 6.1N TCA, 100% Final Concentration is 20%, 35 μl of 8.5 mM phenyl glyoxal (final concentration 4 mM) is then added and the reaction is incubated for 30 min at 37° C.
After 30 minutes the plates are spun down to remove all precipitate. The enzyme reaction was quenched with an equal volume of methanol containing internal standard (modified citrulline). Samples were loaded onto the Rapid Fire RF300 system (Agilent) wherein they were first sipped for 1000 ms and then directly loaded to a C18 separations cartridge using a mixture of acetonitrile containing 0.01% formic acid for 3000 ms desalting. The flow rate of the mobile phase was 1.5 ml/min. Once the samples were eluted from the cartridge, a mobile phase of acetonitrile containing 0.01% formic acid was used to move the samples into the mass spectrometer for 4000 ms at a flow rate of 1.25 ml/min/Sciex API5500 triple quadrupole mass spectrometer (Applied Biosystems) equipped with ESI was used to analyze the peptidyl citrulline and internal standard ions.
MRM transition of product and internal standard were monitored at m/z 424.5 to 350.4 and m/z 293 to 247 respectively. The dwell time for each transition was set at 200 ms, and the ESI voltage was used at 5500 with a source temperature of 400° C. Extracted ion peaks for each transition were integrated using the Rapid Fire Integrator software. Peak area of analyte was normalized with internal standard.).
Usually IC50 stands for the concentration that inhibits the measured activity by half. Low values mean greater potency in that assay, high ones weaker potency in that assay. On to `COc1cc(C(=O)N2C[C@H]3CC[C@@H]2[C@@H]3N)cc2nc(-c3cc4sccc4n3CC3CC3)n(C)c12` [Example 29, ((1R,4R,7R)-7-amino-2-azabicyclo[2.2.1]heptan-2-yl)(2-(4-(cyclopropylmethyl)-4H-thieno[3,2-b]pyrrol-5-yl)-7-methoxy-1-methyl-1H-benzo[d]imidazol-5-yl)methanone], for which it took 84 nM to reach half-maximal inhibition (IC50).
As to `COc1cc(C(=O)N2C[C@H]3CC[C@@H]2[C@@H]3N)cc2nc(-c3cc4scc(CCC#N)c4n3CC3CC3)n(C)c12` [Example 15, 3-(5-(5-((1R,4R,7R)-7-amino-2-azabicyclo[2.2.1]heptane-2-carbonyl)-7-methoxy-1-methyl-1H-benzo[d]imidazol-2-yl)-4-(cyclopropylmethyl)-4H-thieno[3,2-b]pyrrol-3-yl)propanenitrile], half-maximal inhibition (IC50) required 59 nM.
`COc1cc(C(=O)N2C[C@H]3CC[C@@H]2[C@@H]3N)cc2nc(-c3cc4scc(-c5cccn5C)c4n3CC3CC3)n(C)c12` [Example 44, ((1R,4R,7R)-7-amino-2-azabicyclo[2.2.1]heptan-2-yl)(2-(4-(cyclopropylmethyl)-3-(1-methyl-1H-pyrrol-2-yl)-4H-thieno[3,2-b]pyrrol-5-yl)-7-methoxy-1-methyl-1H-benzo[d]imidazol-5-yl)methanone] returned an IC50 of 113 nM.
In turn, `COc1cc(C(=O)N2C[C@H]3CC[C@@H]2[C@@H]3N)cc2nc(-c3cc4scc(C5CCCNC5)c4n3CC3CC3)n(C)c12` (single isomer, unassigned) [Example 9] displayed an IC50 of 40 nM.
For the compound `COc1cc(C(=O)N2C[C@H]3CC[C@@H]2[C@@H]3N)cc2nc(-c3cc4scc(C5CCOCC5)c4n3CC3CC3)n(C)c12` [Example 8, ((1R,4R,7R)-7-amino-2-azabicyclo[2.2.1]heptan-2-yl)(2-(4-(cyclopropylmethyl)-3-(tetrahydro-2H-pyran-4-yl)-4H-thieno[3,2-b]pyrrol-5-yl)-7-methoxy-1-methyl-1H-benzo[d]imidazol-5-yl)methanone], it took 40 nM to reach half-maximal inhibition (IC50).
As to `COc1cc(C(=O)N2C[C@H]3CC[C@@H]2[C@@H]3N)cc2nc(-c3cc4scc(CCN5CCOC5=O)c4n3CC3CC3)n(C)c12` [Example 13, 3-(2-(5-(5-((1R,4R,7R)-7-amino-2-azabicyclo[2.2.1]heptane-2-carbonyl)-7-methoxy-1-methyl-1H-benzo[d]imidazol-2-yl)-4-(cyclopropylmethyl)-4H-thieno[3,2-b]pyrrol-3-yl)ethyl)oxazolidin-2-one], the IC50 amounted to 54 nM.
Next, `COc1cc(C(=O)N2C[C@H]3CC[C@@H]2[C@@H]3N)cc2nc(-c3cc4scc(-c5cc[nH]n5)c4n3CC3CC3)n(C)c12` [Example 40, ((1R,4R,7R)-7-amino-2-azabicyclo[2.2.1]heptan-2-yl)(2-(4-(cyclopropylmethyl)-3-(1H-pyrazol-3-yl)-4H-thieno[3,2-b]pyrrol-5-yl)-7-methoxy-1-methyl-1H-benzo[d]imidazol-5-yl)methanone]: 24 nM; `COc1cc(C(=O)N2C[C@H]3CC[C@@H]2[C@@H]3N)cc2nc(-c3cc4scc(-c5cnn(C6CCOCC6)c5)c4n3CC3CC3)n(C)c12` [Example 48, ((1R,4R,7R)-7-amino-2-azabicyclo[2.2.1]heptan-2-yl)(2-(4-(cyclopropylmethyl)-3-(1-(tetrahydro-2H-pyran-4-yl)-1H-pyrazol-4-yl)-4H-thieno[3,2-b]pyrrol-5-yl)-7-methoxy-1-methyl-1H-benzo[d]imidazol-5-yl)methanone]: 29 nM.
On to `COc1cc(C(=O)N2C[C@H]3CC[C@@H]2[C@@H]3N)cc2nc(-c3cc4sc(Br)cc4n3CC3CC3)n(C)c12` [Example 24, ((1R,4R,7R)-7-Amino-2-azabicyclo[2.2.1]heptan-2-yl)(2-(2-bromo-4-(cyclopropylmethyl)-4H-thieno[3,2-b]pyrrol-5-yl)-7-methoxy-1-methyl-1H-benzo[d]imidazol-5-yl)methanone], for which the IC50 was determined as 41 nM.
In turn, `COc1cc(C(=O)N2C[C@H]3CC[C@@H]2[C@@H]3N)cc2nc(-c3cc4scc(-c5cnn(CC(F)F)c5)c4n3CC3CC3)n(C)c12` [Example 43, ((1R,4R,7R)-7-amino-2-azabicyclo[2.2.1]heptan-2-yl)(2-(4-(cyclopropylmethyl)-3-(1-(2,2-difluoroethyl)-1H-pyrazol-4-yl)-4H-thieno[3,2-b]pyrrol-5-yl)-7-methoxy-1-methyl-1H-benzo[d]imidazol-5-yl)methanone] gave an IC50 of 51 nM.
For the compound `COc1cc(C(=O)N2C[C@H]3CC[C@@H]2[C@@H]3N)cc2nc(-c3cc4scc(-c5ccn(C(C)C)n5)c4n3CC3CC3)n(C)c12` [Example 34, ((1R,4R,7R)-7-amino-2-azabicyclo[2.2.1]heptan-2-yl)(2-(4-(cyclopropylmethyl)-3-(1-isopropyl-1H-pyrazol-3-yl)-4H-thieno[3,2-b]pyrrol-5-yl)-7-methoxy-1-methyl-1H-benzo[d]imidazol-5-yl)methanone], it took 48 nM to reach half-maximal inhibition (IC50).
In turn, `COc1cc(C(=O)N2C[C@H]3CC[C@@H]2[C@@H]3N)cc2nc(-c3cc4scc(-c5ccc(O)c(F)c5)c4n3CC3CC3)n(C)c12` [Example 36, ((1R,4R,7R)-7-amino-2-azabicyclo[2.2.1]heptan-2-yl)(2-(4-(cyclopropylmethyl)-3-(3-fluoro-4-hydroxyphenyl)-4H-thieno[3,2-b]pyrrol-5-yl)-7-methoxy-1-methyl-1H-benzo[d]imidazol-5-yl)methanone] registered an IC50 of 59 nM.
As to `COc1cc(C(=O)N2C[C@H]3CC[C@@H]2[C@@H]3N)cc2nc(-c3cc4sc(-c5ccncc5)cc4n3CC3CC3)n(C)c12` [Example 25, ((1R,4R,7R)-7-Amino-2-azabicyclo[2.2.1]heptan-2-yl)(2-(4-(cyclopropylmethyl)-2-(pyridin-4-yl)-4H-thieno[3,2-b]pyrrol-5-yl)-7-methoxy-1-methyl-1H-benzo[d]imidazol-5-yl)methanone], the midpoint of inhibition, the IC50, lay at 179 nM.
For `COc1cc(C(=O)N2C[C@H]3CC[C@@H]2[C@@H]3N)cc2nc(-c3cc4scc(-c5cnc(C#N)nc5)c4n3CC3CC3)n(C)c12` [Example 41, 5-(5-(5-((1R,4R,7R)-7-amino-2-azabicyclo[2.2.1]heptane-2-carbonyl)-7-methoxy-1-methyl-1H-benzo[d]imidazol-2-yl)-4-(cyclopropylmethyl)-4H-thieno[3,2-b]pyrrol-3-yl)pyrimidine-2-carbonitrile] the value was 140 nM; for `COc1cc(C(=O)N2C[C@H]3CC[C@@H]2[C@@H]3N)cc2nc(-c3cc4scc(CCC(C)(C)O)c4n3CC3CC3)n(C)c12` [Example 6, ((1R,4R,7R)-7-amino-2-azabicyclo[2.2.1]heptan-2-yl)(2-(4-(cyclopropylmethyl)-3-(3-hydroxy-3-methylbutyl)-4H-thieno[3,2-b]pyrrol-5-yl)-7-methoxy-1-methyl-1H-benzo[d]imidazol-5-yl)methanone], 32 nM.
Next, `COc1cc(C(=O)N2C[C@H]3CC[C@@H]2[C@@H]3N)cc2nc(-c3cc4scc(-c5cnn(C)c5)c4n3CC3CC3)n(C)c12` [Example 32, ((1R,4R,7R)-7-amino-2-azabicyclo[2.2.1]heptan-2-yl)(2-(4-(cyclopropylmethyl)-3-(1-methyl-1H-pyrazol-4-yl)-4H-thieno[3,2-b]pyrrol-5-yl)-7-methoxy-1-methyl-1H-benzo[d]imidazol-5-yl)methanone]: 17 nM; `COc1cc(C(=O)N2C[C@H]3CC[C@@H]2[C@@H]3N)cc2nc(-c3cc4scc(Nc5ccncc5)c4n3CC3CC3)n(C)c12` [Example 49, ((1R,4R,7R)-7-Amino-2-azabicyclo[2.2.1]heptan-2-yl)(2-(4-(cyclopropylmethyl)-3-(pyridin-4-ylamino)-4H-thieno[3,2-b]pyrrol-5-yl)-7-methoxy-1-methyl-1H-benzo[d]imidazol-5-yl)methanone]: 62 nM; `COc1cc(C(=O)N2C[C@H]3CC[C@@H]2[C@@H]3N)cc2nc(-c3cc4sc(C)cc4n3CC3CC3)n(C)c12` [Example 27, ((1R,4R,7R)-7-amino-2-azabicyclo[2.2.1]heptan-2-yl)(2-(4-(cyclopropylmethyl)-2-methyl-4H-thieno[3,2-b]pyrrol-5-yl)-7-methoxy-1-methyl-1H-benzo[d]imidazol-5-yl)methanone]: 62 nM.

Source of the values: patent US11981680B2, “Substituted thienopyrroles as PAD4 inhibitors” (BRISTOL-MYERS SQUIBB COMPANY, priority 2018, dated 2024).
